From EP0297456A2, “Immunosuppressant peptides” (MERRELL DOW PHARMACEUTICALS INC., priority 1987, dated 1989)

Tests used:
[1] = tested on: Anti-T₃ Stimulated Lymphocytes (Human peripheral blood mononuclear leukocytes MNL); assay: Inhibition of ³H-thymidine incorporation in anti-T₃ stimulated lymphocytes; format: cell-based; settings: 72 hour incubation
Experimental: Inhibition of ³H-Thymidine Incorporation in Anti-T₃ Stimulated Lymphocytes by Various Peptides
Human peripheral blood mononuclear leukocytes MNL were isolated by Ficoll-Hypaque density sedimentation. MNL ([…]) were cultured with anti-T₃ (1:10,000 dilution; Ortho Diagnostics) in 0.1 ml DMEM, supplemented with 2% FCS, in 96-well microtiter plates. Following a 72 hour incubation (37°C), including a pulse with 1 µCi of [³H]TdR in the final 18 hours of culture, the cells were harvested and counted as described in Example 6.

[2] = tested on: Mixed Lymphocyte Cultures (C57BL/6 and DBA/2 leukocytes); assay: Inhibition of ³H-thymidine incorporation in mixed lymphocyte cultures; format: cell-based; settings: 120 hour incubation
Experimental: Inhibition of ³H-Thymidine Incorporation in Mixed Lymphocyte Cultures by Various Peptides
Spleens were aseptically removed and teased apart in RPMI 1640 culture media to obtain single cell suspensions. Erythrocytes were lysed by suspending cells in ACK buffer (0.155 M NH₄Cl, 0.1 mM EDTA, 0.01 M KHCO₃) and the remaining leukocytes washed. C57BL/6 (5 x 10⁵cells) and DBA/2 (5 x 10⁵cells) leukocytes were co-cultured in 0.1 ml RPMI-1640, supplemented with 2% fetal calf serum (FCS), in 96-well microtiter plates. Various concentrations of peptides were added at the initiation of cell culture. Following a 120 hour incubation (37°C), including a pulse with 1 µCi of [³H]TdR in the final 18 hours of culture, the cells were harvested with an automated cell harvester unit onto filter paper strips and placed in ACS scintillation fluid (Amersham, Oakville, Ontario). The amount of [³H]TdR incorporation was then measured in a Beckman LS 7800 liquid scintillation counter.

H-LRKLRKRLLRDADDL-NH2 [Example 1, peptide]
% Inhibition ([1]; 9 µM BSA-conjugated peptide): 33% | ³H-Thymidine Incorporation (cpm) ([1]; 9 µM BSA-conjugated peptide): 38521 ± 5349 cpm | % Inhibition ([1]; 18 µM BSA-conjugated peptide): 50% | ³H-Thymidine Incorporation (cpm) ([1]; 18 µM BSA-conjugated peptide): 21984 ± 3824 cpm | % Inhibition ([2]; 9 µM BSA-conjugated peptide): 59% | ³H-Thymidine Incorporation (cpm) ([2]; 9 µM BSA-conjugated peptide): 3267 ± 457 cpm | % Inhibition ([2]; 18 µM BSA-conjugated peptide): 73% | ³H-Thymidine Incorporation (cpm) ([2]; 18 µM BSA-conjugated peptide): 1800 ± 412 cpm

H-Glu-Val-Val-Leu-Gln-Asn-Arg-Arg-Gly-Leu-Leu-OH (H-EVVLQNRRGLL-OH) [Example 4, peptide]
% Inhibition ([1]; 4 µM BSA-conjugated peptide): 5% | ³H-Thymidine Incorporation (cpm) ([1]; 4 µM BSA-conjugated peptide): 54331 ± 4717 cpm | % Inhibition ([1]; 8 µM BSA-conjugated peptide): 11% | ³H-Thymidine Incorporation (cpm) ([1]; 8 µM BSA-conjugated peptide): 39248 ± 5251 cpm | % Inhibition ([2]; 4 µM BSA-conjugated peptide): 28% | ³H-Thymidine Incorporation (cpm) ([2]; 4 µM BSA-conjugated peptide): 5751 ± 407 cpm | % Inhibition ([2]; 8 µM BSA-conjugated peptide): 54% | ³H-Thymidine Incorporation (cpm) ([2]; 8 µM BSA-conjugated peptide): 3063 ± 372 cpm

H-LQNRRGLDLLFLKEGGL-NH2 [Example 3, peptide]
% Inhibition ([1]; 12 µM BSA-conjugated peptide): 45% | ³H-Thymidine Incorporation (cpm) ([1]; 12 µM BSA-conjugated peptide): 31667.±.4729 cpm | % Inhibition ([1]; 24 µM BSA-conjugated peptide): 68% | ³H-Thymidine Incorporation (cpm) ([1]; 24 µM BSA-conjugated peptide): 14027 ± 867 cpm | % Inhibition ([2]; 12 µM BSA-conjugated peptide): 57% | ³H-Thymidine Incorporation (cpm) ([2]; 12 µM BSA-conjugated peptide): 3417 ± 263 cpm | % Inhibition ([2]; 24 µM BSA-conjugated peptide): 80% | ³H-Thymidine Incorporation (cpm) ([2]; 24 µM BSA-conjugated peptide): 1328 ± 421 cpm

H-TRLTRKRGLKLATAL-NH2 [Example 2, peptide]
% Inhibition ([1]; 14 µM BSA-conjugated peptide): 23% | ³H-Thymidine Incorporation (cpm) ([1]; 14 µM BSA-conjugated peptide): 44151 ± 2151 cpm | % Inhibition ([1]; 28 µM BSA-conjugated peptide): 54% | ³H-Thymidine Incorporation (cpm) ([1]; 28 µM BSA-conjugated peptide): 20041 ± 3331 cpm | % Inhibition ([2]; 14 µM BSA-conjugated peptide): 45% | ³H-Thymidine Incorporation (cpm) ([2]; 14 µM BSA-conjugated peptide): 4406 ± 848 cpm | % Inhibition ([2]; 28 µM BSA-conjugated peptide): 67% | ³H-Thymidine Incorporation (cpm) ([2]; 28 µM BSA-conjugated peptide): 2209 ± 1471 cpm
